Data published in patent US6635615B1, “Stable salts of S-adenosyl-l-methionine” (priority 1999, dated 2003).

Columns and labels:
[1] = Stability on storage at room temperature, HPLC analysis of SAM-e concentration; assay type: physicochemical
Description: (§1) SAM-e-1, 4-butane-disulphonate and chitosan salt of SAM-e 1, 4-butane-disulphonate were stored at room temperature, in a closed, clear glass vial at constant humidity. HPLC analysis done according to Bottligleri, T. (1990) Isocratic high performance liquid chromatographic analysis of S-adenosylmethionine and S-adenosylhomocysteine in animal tissues: the effect of exposure to nitrous oxide. Biomed Chromatogr, 4(6):239-41.
Stability study-of polycation (chitosan) salt of SAM-e tosylate
as §1, with “SAM-e tosylate” for “SAM-e-1, 4-butane-disulphonate”, “tosylate” for “1, 4-butane-disulphonate”

[2] = preliminary study; cited from earlier work
[3] = oral; short term trial; cited from earlier work
[4] = oral; alcoholic liver cirrhosis; compared with a placebo treated group; cited from earlier work
[5] = oral; patients with and without liver disease; cited from earlier work
[6] = oral; patients with intrahepatic cholestasis; cited from earlier work

C[S+](CC[C@H](N)C(=O)[O-])C[C@H]1O[C@@H](n2cnc3c(N)ncnc32)[C@H](O)[C@@H]1O.O=S(=O)(O)CCCCS(=O)(=O)O (stereo partly drawn) [SAM-e-1,4-butane-disulphonate]
deteriorated by (over the period of time) ([1]; Example 10, text, room temperature storage May 11, 2000 to Aug. 22, 2000): 43%
% Change ([1]; Example 10, May 11, 2000 to Aug. 22, 2000, room temperature, closed clear glass vial, constant humidity): −43.9%
Analysis: May 11, 2000 Concentration 1:500 ([1]; Example 10, first analysis May 11, 2000, dilution 1:500, HPLC): 1417.96 nmol/L
Analysis: Aug. 22, 2000 Concentration 1:500 ([1]; Example 10, second analysis Aug. 22, 2000, stored at room temperature, closed clear glass vial, constant humidity, dilution 1:500): 794.41 nmol/L

C[S+](CC[C@H](N)C(=O)O)C[C@H]1O[C@@H](n2cnc3c(N)ncnc32)[C@H](O)[C@@H]1O.Cc1ccc(S(=O)(=O)[O-])cc1 (stereo partly drawn) [SAM-e tosylate]
deteriorated by (over the period of time) ([1]; Example 11, text, room temperature storage Dec. 28, 1999 to Apr. 4, 2000): 92.9%
Analysis: Dec. 28, 1999 Concentration 0.5 mg/ml 1:125 ([1]; Example 11, first analysis Dec. 28, 1999, 0.5 mg/ml, dilution 1:125, HPLC): 3492 nmol/L
Analysis: Apr. 4, 2000 Concentration 0.5 mg/ml 1:125 ([1]; Example 11, second analysis Apr. 4, 2000, stored at room temperature, closed clear glass vial, constant humidity, 0.5 mg/ml, 1:125): 247.9 nmol/L

C[S+](CC[C@H](N)C(=O)[O-])C[C@H]1O[C@@H](n2cnc3c(N)ncnc32)[C@H](O)[C@@H]1O (stereo partly drawn) [SAM-e, S-adenosyl-1-methionine]
cognitive effect in patients with Alzheimer's disease [2]: cognitive improvement
clinical effect in primary fibromyalgia [3]: significant improvement
overall mortality and/or progression to liver transplant [4]: 29% vs 12%
liver glutathione levels [5]: increases in liver glutathione levels
pruritus and biochemical markers of cholestasis [6]: improvements in both the pruritus as well as the biochemical markers of cholestasis
